Drawing on patent publication US12390437B2, “Itaconic acid derivatives and uses thereof intreating an inflammatory disease or a disease associated with an undesirable immune response” (Sitryx Therapeutics Limited, priority 2019, dated 2025), this text covers IC50 for 36 molecules.

The test system of the first test is IL-1β cytokine output from THP-1s. Briefly: THP-1 AlphaLISA IL-1β cytokine assay. Conditions: Homo sapiens, THP-1, PMA-differentiated THP-1 cells, LPS 24 hr then Nigericin 1 hour; read-out: IL-1β (IC50). It is filed as cell-based, human. The procedure: Measuring Inhibitory Effects on IL-1β and IL-6 Cytokine Output from THP-1s
The cytokine inhibition profiles of compounds of formula (IW-1) were determined in a differentiated THP-1 cell assay. All assays were performed in RPMI-1640 growth medium (Gibco), supplemented with 10% fetal bovine serum (FBS; Gibco), 1% penicillin-streptomycin and 1% sodium pyruvate unless specified otherwise. The IL-1β and IL-6 cytokine inhibition assays were each run in a background of differentiated THP-1 cells as described below. All reagents described were from Sigma-Aldrich unless specified otherwise. Compounds were prepared as 10 mM DMSO stocks.
THP-1 cells were expanded as a suspension up to 80% confluence in appropriate growth medium. Cells were harvested, suspended, and treated with an appropriate concentration of phorbol 12-myristate 13-acetate (PMA) over a 72 hr period (37° C./5% CO2).
Following 72 hrs of THP-1 cell incubation, cellular medium was removed and replaced with fresh growth media containing 1% of FBS. Working concentrations of compounds were prepared separately in 10% FBS treated growth medium and pre-incubated with the cells for 30 minutes (37° C./5% CO2). Following the 30 minute compound pre-incubation, THP-1s were treated with an appropriate concentration of LPS and the THP-1s were subsequently incubated for a 24 hr period (37° C./5% CO2). An appropriate final concentration of Nigericin was then dispensed into the THP-1 plates and incubated for 1 hour (37° C./5% CO2) before THP-1 supernatants were harvested and collected in separate polypropylene 96-well holding plates.
Reagents from each of the IL-1β and IL-6 commercial kits (Perkin Elmer) were prepared and run according to the manufacturer's instructions. Subsequently, fluorescence signal detection in a microplate reader was measured (EnVision® Multilabel Reader, Perkin Elmer).
Percentage inhibition was calculated per cytokine by normalising the sample data to the high and low controls used within each plate (+/−LPS respectively). Percentage inhibition was then plotted against compound concentration and the 50% inhibitory concentration (IC50) was determined from the resultant concentration-response curve.
A general note: Alpha assays give light when donor and acceptor beads are brought close together.
As for `C=C(CC(=O)OC(C)c1cc(Cl)cc(Cl)c1)C(=O)OCC(=O)O` (single isomer, unassigned; isomer 1) [Example 198, 2-((4-(1-(3,5-dichlorophenyl)ethoxy)-2-methylene-4-oxobutanoyl)oxy)acetic acid (Isomer 1)], the IC50 was 22 µM.

As to `C=C(CC(=O)OC1CCCCCCC1)C(=O)O[C@@H](C)[C@@H](NC(C)=O)C(=O)O` (stereo in doubt) [Example 136, (2R,3S)-2-acetamido-3-((4-(cyclooctyloxy)-2-methylene-4-oxobutanoyl)oxy)butanoic acid], the IC50 is 54.2 µM.

With `C=C(CC(=O)OCCCCCCCC)C(=O)OC1CCOCC1` [Example 26, 4-octyl 1-(tetrahydro-2H-pyran-4-yl) 2-methylenesuccinate], the IC50 is 16.1 µM.

On to `C=C(CC(=O)OC1CCCCC1)C(=O)OC1CN(C(C)=O)C1` [Example 74, 1-(1-acetylazetidin-3-yl) 4-cyclohexyl 2-methylenesuccinate], for which the IC50 was 4.2 µM.

In the case of `C=C(CC(=O)OCCCCCC)C(=O)OC1CCN(S(C)(=O)=O)CC1` [Example 76, 4-hexyl 1-(1-(methylsulfonyl)piperidin-4-yl) 2-methylenesuccinate], the IC50 turned out to be 4.1 µM.

As to `C=C(CC(=O)OCCCCCC)C(=O)OCCN1CCCC1=O` [Example 77, 4-hexyl 1-(2-(2-oxopyrrolidin-1-yl)ethyl) 2-methylenesuccinate], the IC50 came to 14.5 µM.

Turning to `C=C(CC(=O)OC1CCCCCCC1)C(=O)OCC(=O)N(C)CC(=O)O` [Example 103, N-(2-((4-(cyclooctyloxy)-2-methylene-4-oxobutanoyl)oxy)acetyl)-N-methylglycine], the IC50 was found to be 55.5 µM.

On to `C=C(CC(=O)OC1CCCCCCC1)C(=O)OCC(=O)N1CCC[C@H]1C(=O)O` [Example 104, (2-((4-(cyclooctyloxy)-2-methylene-4-oxobutanoyl)oxy)acetyl)-L-proline], for which the IC50 was 14.4 µM.

Consider `C=C(CC(=O)O[C@@H](C)CCCCCC)C(=O)OCC(=O)N(C)CC(=O)O` [Example 105, (S)-N-methyl-N-(2-((2-methylene-4-(octan-2-yloxy)-4-oxobutanoyl)oxy)acetyl)glycine], for which the IC50 was 27.9 µM.

Turning to `C=C(CC(=O)O[C@@H](C)CCCCCC)C(=O)OCC(=O)NCC(=O)O` [Example 106, (S)-(2-((2-methylene-4-(octan-2-yloxy)-4-oxobutanoyl)oxy)acetyl)glycine], the IC50 was 15.6 µM.

As to `C=C(CC(=O)OC1CCCCC1)C(=O)OC(C(=O)O)C(F)(F)F` (stereo not drawn) [Example 121, 2-((4-(cyclohexyloxy)-2-methylene-4-oxobutanoyl)oxy)-3,3,3-trifluoropropanoic acid], the IC50 was found to be 54.2 µM.

Turning to `C=C(CC(=O)OC1CCCCC1)C(=O)O[C@@H](C(=O)O)c1ccccc1` [Example 127, (R)-2-((4-(cyclohexyloxy)-2-methylene-4-oxobutanoyl)oxy)-2-phenylacetic acid], the IC50 was 44.9 µM.

Turning to `C=C(CC(=O)OC1CCCCCCC1)C(=O)OCC(C)(C)S(=O)(=O)c1cccc(Cl)c1` [Example 131, 1-(2-((3-chlorophenyl)sulfonyl)-2-methylpropyl) 4-cyclooctyl 2-methylenesuccinate], the IC50 was 4.4 µM.

For `C=C(CC(=O)OC1CCCCCCC1)C(=O)OCC(C)(C)S(C)(=O)=O` [Example 132, 4-cyclooctyl 1-(2-methyl-2-(methylsulfonyl)propyl) 2-methylenesuccinate], the IC50 came to 4.3 µM.

Take `C=C(CC(=O)O[C@H](C)CCCCCC)C(=O)OC(C)Cc1nnn[nH]1` (stereo partly drawn) [Example 140, 1-(1-(1H-tetrazol-5-yl)propan-2-yl) 4-((R)-octan-2-yl) 2-methylenesuccinate]: the IC50 stood at 7.8 µM.

With `C=C(CC(=O)O[C@@H](C)CCCCCC)C(=O)OC(C)Cc1nnn[nH]1` (stereo partly drawn) [Example 141, 1-(1-(1H-tetrazol-5-yl)propan-2-yl) 4-((S)-octan-2-yl) 2-methylenesuccinate], the IC50 is 6.5 µM.

On to `C=C(CC(=O)OC1CCCCC1)C(=O)OCc1nnn(C)n1` [Example 142, 4-cyclohexyl 1-((2-methyl-2H-tetrazol-5-yl)methyl) 2-methylenesuccinate], for which the IC50 was determined as 6.2 µM.

As for `C=C(CC(=O)OC1CCCCC1)C(=O)OCc1nnnn1C` [Example 143, 4-cyclohexyl 1-((1-methyl-1H-tetrazol-5-yl)methyl) 2-methylenesuccinate], the IC50 turned out to be 2 µM.

As for `C=C(CC(=O)OC(CC)CCCCC)C(=O)OCC(=O)O` (stereo not drawn) [Example 146, 2-(2-methylene-4-(octan-3-yloxy)-4-oxobutanoyloxy)acetic acid], the IC50 stood at 8.5 µM.

As to `C=C(CC(=O)OC(CCC)CCCC)C(=O)OCC(=O)O` (stereo not drawn) [Example 147, 2-(2-methylene-4-(octan-4-yloxy)-4-oxobutanoyloxy)acetic acid], the IC50 was 13.4 µM.

For the molecule `C=C(CC(=O)OC(CCC)CCC)C(=O)OCC(=O)O` [Example 148, 2-((4-(heptan-4-yloxy)-2-methylene-4-oxobutanoyl)oxy)acetic acid], the IC50 is 29.6 µM.

For `C=C(CC(=O)OC1C2CC3CC(C2)CC1C3)C(=O)OCC(=O)O` (stereo not drawn) [Example 149, 2-((4-((adamantan-2-yl)oxy)-2-methylene-4-oxobutanoyl)oxy)acetic acid], the IC50 was 12.1 µM.

As for `C=C(CC(=O)OC(C)C1CCCCC1)C(=O)OCC(=O)O` (stereo not drawn) [Example 150, 2-((4-(1-cyclohexylethoxy)-2-methylene-4-oxobutanoyl)oxy)acetic acid], the IC50 turned out to be 11.7 µM.

As for `C=C(CC(=O)OC(C)C1CCCCCC1)C(=O)OCC(=O)O` (stereo not drawn) [Example 151, 2-((4-(1-cycloheptylethoxy)-2-methylene-4-oxobutanoyl)oxy)acetic acid], the 50% inhibitory concentration (IC50) was found to be 10.3 µM.

As for `C=C(CC(=O)OC1CC2(CCCC2)C1)C(=O)OCC(=O)O` [Example 152, 2-(2-methylene-4-oxo-4-(spiro[3.4]octan-2-yloxy)butanoyloxy)acetic acid], the IC50 is 10.3 µM.

For `C=C(CC(=O)OC1CC2(CCCCC2)C1)C(=O)OCC(=O)O` [Example 153, 2-(2-methylene-4-oxo-4-(spiro[3.5]nonan-2-yloxy)butanoyloxy)acetic acid], the IC50 amounted to 7 µM.

Turning to `C=C(CC(=O)OC1CCC2(CCC2)CC1)C(=O)OCC(=O)O` [Example 154, 2-(2-methylene-4-oxo-4-(spiro[3.5]nonan-7-yloxy)butanoyloxy)acetic acid], the IC50 came to 8.4 µM.

`C=C(CC(=O)OC1CCCCC1(C)C)C(=O)OCC(=O)O` (stereo not drawn) [Example 155, 2-((4-((2,2-dimethylcyclohexyl)oxy)-2-methylene-4-oxobutanoyl)oxy)acetic acid]: the IC50 amounted to 16.5 µM.

On to `C=C(CC(=O)O[C@@H](C)CCCCCC)C(=O)OC(c1nn[nH]n1)C1CC1` (stereo partly drawn) [Example 166, 1-(cyclopropyl(1H-tetrazol-5-yl)methyl) 4-((S)-octan-2-yl) 2-methylenesuccinate], for which the IC50 was 67.4 µM.

In the case of `C=C(C(=O)OCC(=O)O)C(C)C(=O)OC1CCCCCCC1` (stereo not drawn) [Example 168, 2-((4-(cyclooctyloxy)-3-methyl-2-methylene-4-oxobutanoyl)oxy)acetic acid], the IC50 came to 49.3 µM.

Still in this test, the particulars now being: Homo sapiens, THP-1, read-out: IL-1β (IC50).
As to `C=C(CC(=O)OC1CCCCC1)C(=O)OC/C=C/C(=O)O` [Example 123, (E)-4-((4-(cyclohexyloxy)-2-methylene-4-oxobutanoyl)oxy)but-2-enoic acid], the IC50 was determined as 19.5 µM.

As to `C=C(CC(=O)OCC(=O)O)C(=O)OCCS(=O)(=O)c1cccc(Cl)c1` [Example 126, 2-((3-((2-((3-chlorophenyl)sulfonyl)ethoxy)carbonyl)but-3-enoyl)oxy)acetic acid], the IC50 is 0.7 µM.

The same test, now with this note: Homo sapiens; PMA-differentiated THP-1 cells, LPS 24 hr then Nigericin 1 hour; read-out: IL-1β (IC50).
On to `C=C(CC(=O)OC1CCCCC1)C(=O)OCCS(=O)(=O)CCC(=O)O` [Example 124, 3-((2-((4-(cyclohexyloxy)-2-methylene-4-oxobutanoyl)oxy)ethyl)sulfonyl)propanoic acid], for which the IC50 was 52.4 µM.

For `C=C(CC(=O)OC1CCCCC1)C(=O)OC1CCCCC1` [Example 167, dicyclohexyl 2-methylenesuccinate], the IC50 worked out at 29.1 µM.

In the case of `C=C(C(=O)OCC(=O)O)C(OC)C(=O)OC1CCCCCCC1` (stereo not drawn) [Example 171, 2-((4-(cyclooctyloxy)-3-methoxy-2-methylene-4-oxobutanoyl)oxy)acetic Acid], the IC50 was found to be 21.8 µM.

The test is the same for the next values; noted with them: PMA-differentiated THP-1 cells, LPS 24 hr then Nigericin 1 hour; read-out: IL-1β (IC50).
For `C=C(CC(=O)OC(C)c1cc(Cl)cc(Cl)c1)C(=O)OCC(=O)O` (single isomer, unassigned; isomer 2) [Example 199, 2-((4-(1-(3,5-dichlorophenyl)ethoxy)-2-methylene-4-oxobutanoyl)oxy)acetic acid (Isomer 2)], the IC50 was 18.3 µM.

What is called IC50 is the midpoint of a concentration-inhibition curve.
